Measured values as given in patent US20250109127A1, “METHODS OF USE OF PHENOXYPROPYLAMINE COMPOUNDS TO TREAT DEPRESSION” (Minerva Neurosciences, Inc., priority 2013, published 2025).
Several values for one entry are separate records, joined by “and”; a condition that tells them apart may be missing. Equal entries are not always repeated. Structures can show the parent of a compound that is named as a salt.

Tested on: 5-HT release in the rat prefrontal cortex
Assay: Microdialysis: 5-HT release in prefrontal cortex after I.P. administration
Format: in vivo
Conditions: for 5-HT release (% of basal levels) measured in dialysates: individual animals, hydrochloride, 3 mg/kg; for 5-HT release (% of basal levels) measured in dialysates, MEAN / 5-HT (% of respective basal) MEAN: n = 8; for 5-HT (% of respective basal) MEAN: SON-117 group 0.1 mg/kg I.P.
Description: The aim of the study was to evaluate, using microdialysis, the effects of an intraperitoneal (I.P.) administration in rats of three different doses of SON-117 on dopamine and its metabolites, serotonin and its metabolite (5-HIAA), and norepinephrine levels in prefrontal cortex.
Thirty-two adult male Wistar rats were used for the whole study (4 groups of eight animals planned for the study, Table 1).
Surgery was performed on rats weighing about 300 g at the beginning of the experiments. Rats were anaesthetized with Ketamine (50 mg/kg) & Xylazine (15 mg/kg) by intramuscular administration. The animals were placed in a stereotaxic apparatus in the flat-skull position at a constant setting of −3.3 mm between ear bars and the incisor bar. The animals were treated with a local anesthesic (xylocaine 1%, Astra Zeneca) and an analgesic (Temgesic, from Schering Plough, 0.05 mg/kg, s.c.). A rostrocaudal midline incision was made with a lancet to expose the dorsal skull surface. The “stereotaxic zero” was defined by the Bregma in accordance with Paxinos and Watson's atlas (1986). A hole was drilled in the skull with a drill and the meninges were pierced with a sterile needle to implant a CMA12 guide cannula which later received the dialysis probe.
Coordinates used for implanting guide cannula in prefrontal cortex from Bregma were anteroposterior 3.7 mm, mediolateral 0.8 mm, and dorsoventral −2 mm (top of the probe was at −5 mm). The guide cannula was fixed to the skull with two stainless steel screws (1.88 mm outside diameter) anchored. An application of dental cement was added. A plastic collar allowed each animal to be tethered to a Swivel assembly of the CMA 120 awake animal system. Following surgery, rats were kept in individual cages and allowed to recover for a minimum of 3-5 days before the experimentation. The rats were handled and put in plastic bowl for 10 min at least every day to habituate the animals to their new environment for the dialysis. An I.P. administration with saline was also performed every day.
Dialysis probes (CMA12/3 mm, membrane, 20 kD cut-off, Carnegie Medicine, Stockholm, Sweden), were carefully washed before inserting into the guide cannula. The wash was performed with the artificial cerebrospinal fluid (aCSF) medium (NaCl 147 mM, KCl 2.7 mM, CaCl2 1.2 mM, MgCl2 0.85 mM) at room temperature. The dialysis system was then equilibrated at 20° C. at a perfusion rate of 1 μl/min with a Carnegie pump (CMA100). All catheters (FEP tubing, internal volume of 1.2 μl/10 cm, and tubing adaptors) used for microdialysis were treated in the same conditions.
The probes duly prepared were inserted into the guide cannula and the CMA120 Swivel assembly secured to the animal using a plastic collar. Flow through the dialysis probe with aCSF was maintained at a rate of 1 μl/min during the whole experimentation. The first four fractions (corresponding to 2 hours) were discarded to avoid the effects of parenchymal disturbance and to ensure that an approximate steady-state level was reached. Fractions were then collected over a period of 8.5 h during which time the animals remained quiet. The dialysates were automatically collected with an autosampler (microfraction collector CMA 140, Carnegie Medicin) and stored at −80° C. until analysis. […] Perfusion was then maintained for 7 hours with aCSF. The dialysates (30 μl) were collected into 300 μl vials, transferred into dry ice and then kept frozen (−80° C.) until analysis. Frozen samples were shipped to a partner for analysis. At the end of the microdialysis study, a PBS with colored ink was perfused through the probe in order to visualize the dialyzed area.
Catecholamine assay: Concentrations of dopamine, DOPAC, HVA, 5-HIAA, 5-HT, and norepinephrin were determined for each sample by HPLC coupled with electrochemical detection. […]

[1] = SON-117 3 mg/kg IP, T1 h 30-T2 h
[2] = SON-117 3 mg/kg IP, T1 h-T1 h 30
[3] = SON-117 3 mg/kg IP, T2 h 30-T3 h
[4] = SON-117 3 mg/kg IP, T2 h-T2 h 30
[5] = SON-117 3 mg/kg IP, T3 h 30-T4 h
[6] = SON-117 3 mg/kg IP, T3 h-T3 h 30
[7] = SON-117 3 mg/kg IP, T4 h 30-T5 h
[8] = SON-117 3 mg/kg IP, T4 h-T4 h 30
[9] = SON-117 3 mg/kg IP, T5 h 30-T6 h
[10] = SON-117 3 mg/kg IP, T5 h-T5 h 30
[11] = SON-117 3 mg/kg IP, T6 h 30-T7 h
[12] = SON-117 3 mg/kg IP, T6 h-T6 h 30
[13] = SON-117 3 mg/kg IP, T-1 h 30-T-1 h (pre-administration)

With `Cc1nnc(-c2cc3c(OC[C@@H](O)CN4CCC(c5ccc(Cl)c(Cl)c5)CC4)cccc3o2)o1` [SON-117, (S)-1-(4-(3,4-dichlorophenyl)piperidino)-3-(2-(5-methyl-1,3,4-oxadiazol-2-yl)benzo(b)furan-4-yloxy)-2-propanol hydrochloride] the “5-HT release (% of basal levels) measured in dialysates” value (SON-117 3 mg/kg IP, T30-T1 h) was 204.22 % of basal levels and 162.26 % of basal levels and 105.16 % of basal levels and 123.52 % of basal levels and 121.85 % of basal levels and 66.82 % of basal levels and 90.61 % of basal levels and 103.58 % of basal levels, the “5-HT release (% of basal levels) measured in dialysates, MEAN” value (from here on “5-HT release (% of basal levels) … MEAN”) [1] was 172.47 % of basal levels and the “5-HT release (% of basal levels) measured in dialysates” value [1] was 272.64 % of basal levels and 219.61 % of basal levels and 141.23 % of basal levels and 159.07 % of basal levels and 135.20 % of basal levels and 206.96 % of basal levels and 105.40 % of basal levels and 139.63 % of basal levels. The “5-HT release (% of basal levels) … MEAN” value [2] was 139.57 % of basal levels, the “5-HT release (% of basal levels) measured in dialysates” value [2] was 205.53 % of basal levels and 81.50 % of basal levels and 112.86 % of basal levels and 110.90 % of basal levels and 126.82 % of basal levels and 127.44 % of basal levels and 170.45 % of basal levels and 181.06 % of basal levels and the “5-HT release (% of basal levels) … MEAN” value [3] was 134.29 % of basal levels. For the same compound, the “5-HT release (% of basal levels) measured in dialysates” value [3] was 158.52 % of basal levels and 136.53 % of basal levels and 84.73 % of basal levels and 118.94 % of basal levels and 141.58 % of basal levels and 105.71 % of basal levels and 168.18 % of basal levels and 160.12 % of basal levels, the “5-HT release (% of basal levels) … MEAN” value [4] was 134.68 % of basal levels and the “5-HT release (% of basal levels) measured in dialysates” value [4] was 125.58 % of basal levels and 163.25 % of basal levels and 90.55 % of basal levels and 143.00 % of basal levels and 145.36 % of basal levels and 158.14 % of basal levels and 116.88 % of basal levels. The “5-HT release (% of basal levels) … MEAN” value [5] was 122.79 % of basal levels, the “5-HT release (% of basal levels) measured in dialysates” value [5] was 112.86 % of basal levels and 166.51 % of basal levels and 77.19 % of basal levels and 149.84 % of basal levels and 120.64 % of basal levels and 72.84 % of basal levels and 159.63 % of basal levels and the “5-HT release (% of basal levels) … MEAN” value [6] was 131.57 % of basal levels. For the same compound, the “5-HT release (% of basal levels) measured in dialysates” value [6] was 178.23 % of basal levels and 97.99 % of basal levels and 78.86 % of basal levels and 198.09 % of basal levels and 131.52 % of basal levels and 75.85 % of basal levels and 160.43 % of basal levels, the “5-HT release (% of basal levels) … MEAN” value [7] was 263.96 % of basal levels and the “5-HT release (% of basal levels) measured in dialysates” value [7] was 119.63 % of basal levels and 88.15 % of basal levels and 75.09 % of basal levels and 174.97 % of basal levels and 117.70 % of basal levels and 1179.79 % of basal levels and 92.36 % of basal levels. For the same compound, the “5-HT release (% of basal levels) … MEAN” value [8] was 118.76 % of basal levels, the “5-HT release (% of basal levels) measured in dialysates” value [8] was 40.46 % of basal levels and 171.66 % of basal levels and 76.54 % of basal levels and 186.25 % of basal levels and 112.71 % of basal levels and 98.26 % of basal levels and 145.41 % of basal levels and the “5-HT release (% of basal levels) … MEAN” value [9] was 150.50 % of basal levels. The “5-HT release (% of basal levels) measured in dialysates” value [9] was 121.53 % of basal levels and 146.21 % of basal levels and 238.25 % of basal levels and 159.31 % of basal levels and 72.12 % of basal levels and 135.51 % of basal levels and 180.58 % of basal levels, the “5-HT release (% of basal levels) … MEAN” value [10] was 176.38 % of basal levels and the “5-HT release (% of basal levels) measured in dialysates” value [10] was 118.62 % of basal levels and 189.63 % of basal levels and 161.82 % of basal levels and 191.70 % of basal levels and 132.84 % of basal levels and 100.25 % of basal levels and 410.45 % of basal levels and 105.75 % of basal levels. The “5-HT release (% of basal levels) … MEAN” value [11] was 172.13 % of basal levels, the “5-HT release (% of basal levels) measured in dialysates” value [11] was 146.14 % of basal levels and 156.41 % of basal levels and 213.64 % of basal levels and 136.73 % of basal levels and 298.30 % of basal levels and 107.87 % of basal levels and 145.86 % of basal levels and the “5-HT release (% of basal levels) … MEAN” value [12] was 156.40 % of basal levels. The “5-HT release (% of basal levels) measured in dialysates” value [12] was 135.63 % of basal levels and 218.45 % of basal levels and 123.22 % of basal levels and 169.93 % of basal levels and 132.54 % of basal levels and 87.76 % of basal levels and 130.92 % of basal levels and 252.75 % of basal levels, the “5-HT release (% of basal levels) … MEAN” value (SON-117 3 mg/kg IP, T-30 min-T0 (pre-administration)) was 97.07 % of basal levels and the “5-HT release (% of basal levels) … MEAN” value [13] was 101.16 % of basal levels. The “5-HT release (% of basal levels) measured in dialysates” value [13] was 104.98 % of basal levels and 84.68 % of basal levels and 89.82 % of basal levels, the “5-HT release (% of basal levels) … MEAN” value (SON-117 3 mg/kg IP, T-1 h-T-30 min (pre-administration)) was 102.92 % of basal levels and the “5-HT concentrations in prefrontal cortex, significant increase, max.” value (SON-117 3 mg/kg IP, from 2 h to 3 h) was 175%. The “5-HT concentrations in prefrontal cortex, significant increase” value (SON-117 3 mg/kg IP, from 5.5 h to 7 h) was 272%, the “5-HT release, increase still present” value (SON-117 3 mg/kg, 7 h after administration) was 183% and the “levels of 5-HT compared to the citalopram treated group (significant)” value (SON-117 3 mg/kg, at 1 h) was “slightly lower”. The “5-HT release, maximum increase observed” value (SON-117 3 mg/kg, at 5 h) was 272%, the “levels of 5-HT compared to the citalopram treated group (significant)” value (SON-117 3 mg/kg, at 5 h and 7 h) was “higher” and the “5-HT (% of respective basal) MEAN” value (T0-T30 min) was 128.89 % of respective basal. For the same compound, the “5-HT (% of respective basal) MEAN” value (T30-T1 h) was 123.42 % of respective basal, the “5-HT (% of respective basal) MEAN” value (T1 h 30-T2 h) was 167.52 % of respective basal and the “5-HT (% of respective basal) MEAN” value (T1 h-T1 h 30) was 176.03 % of respective basal. For the same compound, the “5-HT (% of respective basal) MEAN” value (T2 h 30-T3 h) was 215.80 % of respective basal, the “5-HT (% of respective basal) MEAN” value (T2 h-T2 h 30) was 370.70 % of respective basal and the “5-HT (% of respective basal) MEAN” value (T3 h 30-T4 h) was 151.83 % of respective basal. The “5-HT (% of respective basal) MEAN” value (T3 h-T3 h 30) was 156.53 % of respective basal, the “5-HT (% of respective basal) MEAN” value (T4 h 30-T5 h) was 296.70 % of respective basal and the “5-HT (% of respective basal) MEAN” value (T4 h-T4 h 30) was 350.16 % of respective basal. The “5-HT (% of respective basal) MEAN” value (T5 h 30-T6 h) was 250.07 % of respective basal, the “5-HT (% of respective basal) MEAN” value (T5 h-T5 h 30) was 310.25 % of respective basal and the “5-HT (% of respective basal) MEAN” value (T6 h 30-T7 h) was 253.10 % of respective basal. For the same compound, the “5-HT (% of respective basal) MEAN” value (T6 h-T6 h 30) was 254.62 % of respective basal, the “5-HT (% of respective basal) MEAN” value (T-30 min-T0 (before administration)) was 112.68 % of respective basal and the “5-HT (% of respective basal) MEAN” value (T-1 h 30-T-1 h (before administration)) was 80.63 % of respective basal. For the same compound, the “5-HT (% of respective basal) MEAN” value (T-1 h-T-30 min (before administration)) was 106.27 % of respective basal.
